From patent US10538487B2, “Sulfonylureas and related compounds and use of same” (priority 2015, dated 2020) come the findings set out here.

This assay deals with NLRP3 inflammasome (Homo sapiens, UniProt Q96P20). The assay is described as follows: Inhibition of IL-1β release, NLRP3 inflammasome activation assay in HMDM. The assay is classed as cell-based. On the procedure:
The following assays can be used to determine inhibitory activity of test compounds on the NLRP3 inflammasome using common stimuli such as adenosine triphosphate, nigericin, LeuLeu-OMe or monosodium urate crystals (MSU).
To generate HMDM, human monocytes are isolated from buffy coat blood using Ficoll-Plaque Plus (GE Healthcare) and density centrifugation. CD14^+ cell selection is performed using MACS magnetic beads (Miltenyl Biotec).
HMDM are seeded at 1×10^5/ml. […] Medium is removed and replaced with serum free medium (SFM) containing test compound 30 min prior to NLRP3 stimulation. […] ATP can be sourced from Sigma Aldrich, nigericin and MSU from Invivogen and LeuLeu-Ome from Chem-Impex International.
For ELISA and cell death assays cells are seeded in 96 well plates. Supernatants are removed and analysed using ELISA kits according to the manufacturer's instructions (DuoSet® R&D Systems, ReadySetGo!® eBioscience, BD OptEIA™, or Perkin Elmer AlphaLISA®). Cell death is assessed by measurement of LDH release relative to a 100% cell lysis control using the CytoTox96® non-radioactive cytotoxicity assay (Promega).

The mark [1] stands for this setting: commercial compounds (Table 9), read-out: HMDM IC50 vs NLRP3.
Where [2] appears, read: inhibition of IL-1β release, class symbols, read-out: Avg. IL-1β IC50 HMDM.

pIC50: −log10 of the molar value. Where two headings read alike, the source gives them in different places.

Chain of NLRP3 inflammasome (Q96P20 whole entry): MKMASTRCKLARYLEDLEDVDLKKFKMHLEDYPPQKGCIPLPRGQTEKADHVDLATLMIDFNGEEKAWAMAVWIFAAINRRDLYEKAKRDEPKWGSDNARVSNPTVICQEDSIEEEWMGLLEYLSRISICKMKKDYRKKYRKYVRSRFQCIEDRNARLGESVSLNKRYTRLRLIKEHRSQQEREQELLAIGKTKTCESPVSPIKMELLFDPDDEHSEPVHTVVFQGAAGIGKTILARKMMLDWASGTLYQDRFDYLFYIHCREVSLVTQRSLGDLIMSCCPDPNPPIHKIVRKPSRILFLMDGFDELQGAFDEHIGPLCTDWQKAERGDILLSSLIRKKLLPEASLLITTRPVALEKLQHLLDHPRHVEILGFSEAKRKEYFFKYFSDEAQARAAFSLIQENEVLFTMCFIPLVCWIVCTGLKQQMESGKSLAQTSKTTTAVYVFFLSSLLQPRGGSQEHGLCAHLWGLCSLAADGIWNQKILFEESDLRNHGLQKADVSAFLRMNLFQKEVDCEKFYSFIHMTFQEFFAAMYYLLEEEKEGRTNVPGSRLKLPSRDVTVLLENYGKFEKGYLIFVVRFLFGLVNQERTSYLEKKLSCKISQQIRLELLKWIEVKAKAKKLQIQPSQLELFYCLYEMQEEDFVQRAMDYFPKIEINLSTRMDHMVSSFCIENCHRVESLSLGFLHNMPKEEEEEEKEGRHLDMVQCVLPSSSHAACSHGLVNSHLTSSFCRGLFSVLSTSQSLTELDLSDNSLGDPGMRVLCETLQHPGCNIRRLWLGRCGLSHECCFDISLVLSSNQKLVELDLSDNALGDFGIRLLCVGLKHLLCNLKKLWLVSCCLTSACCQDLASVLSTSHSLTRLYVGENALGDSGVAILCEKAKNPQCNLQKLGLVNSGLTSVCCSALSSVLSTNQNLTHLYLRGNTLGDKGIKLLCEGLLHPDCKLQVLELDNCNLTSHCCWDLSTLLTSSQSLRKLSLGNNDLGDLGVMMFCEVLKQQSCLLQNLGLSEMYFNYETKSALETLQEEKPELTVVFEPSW

Regarding `CCC1=C(C)CN(C(=O)NCCc2ccc(S(=O)(=O)NC(=O)NC3CCC(C)CC3)cc2)C1=O` (centres unmarked) [Glimepiride, reference compound], under setting [1], the pIC50 is 4.04.

As to `O=C(Nc1c2c(cc3c1CCC3)CCC2)NS(=O)(=O)c1cc2ccccc2o1` [N-((1,2,3,5,6,7-hexahydro-s-indacen-4-yl)carbamoyl)benzofuran-2-sulfonamide], the pIC50 under setting [2] was more than 6.00.

In the case of `CC(C)(C)c1cc(C(C)(C)C)nc(NC(=O)NS(=O)(=O)c2cc(C(C)(C)O)co2)n1` [N-((4,6-di-tert-butylpyrimidin-2-yl)carbamoyl)-4-(2-hydroxypropan-2-yl)furan-2-sulfonamide], the pIC50 under setting [2] was more than 4.30.

`CN(CC(=O)NCCc1ccc(S(=O)(=O)NC(=O)Nc2c3c(cc4c2CCC4)CCC3)cc1)c1ccc([N+](=O)[O-])c2nonc12` [N-(4-(N-(1,2,3,5,6,7-Hexahydros-indacen-4-ylcarbamoyl)sulfamoyl)phenethyl)-2-(methyl(7-nitrobenzo[c][1,2,5]oxadiazol-4-yl)amino)acetamide]: under setting [2], the pIC50 is more than 5.00.

Turning to `[2H]C([2H])([2H])C(O)(c1cc(S(=O)(=O)NC(=O)Nc2c3c(cc4c2CCO4)CCC3)oc1C)C([2H])([2H])[2H]` [4-(2-hydroxypropan-2-yl-1,1,1,3,3,3-d6)-5-methyl-N-((3,5,6,7-tetrahydro-2H-indeno[5,6-b]furan-4-yl)carbamoyl)furan-2-sulfonamide], the pIC50 under setting [2] was more than 7.00.

For `O=C(Nc1c2c(cc3c1CCC3)CCC2)NS(=O)(=O)c1ccn(CCN2CCCCC2)n1` [N-((1,2,3,5,6,7-hexahydro-s-indacen-4-yl)carbamoyl)-1-(2-(piperidin-1-yl)ethyl)-1H-pyrazole-3-sulfonamide], the pIC50 under setting [2] was more than 5.00.

Turning to `O=C(Nc1c2c(cc3c1CCC3)CCC2)NS(=O)(=O)C1CCOC1` (centres unmarked) [N-((1,2,3,5,6,7-hexahydro-s-indacen-4-yl)carbamoyl)tetrahydrofuran-3-sulfonamide], the pIC50 under setting [2] was more than 5.00.

Regarding `Cc1ccc(S(=O)(=O)NC(=O)NN2CCCCCC2)cc1` [Tolazamide, reference compound], the pIC50 under setting [1] is less than 3.70.

As to `COc1cc(NC(=O)NS(=O)(=O)c2cccc(C3(C(F)(F)F)N=N3)c2)c2ncccc2c1` [N-((6-methoxyquinolin-8-yl)carbamoyl)-3-(3-(trifluoromethyl)-3H-diazirin-3-yl)benzenesulfonamide], the pIC50 under setting [2] is more than 4.30.

In the case of `Cc1cc(S(=O)(=O)NC(=O)Nc2c3c(cc4c2CCC4)CCC3)nn1C` [N-((1,2,3,5,6,7-hexahydro-s-indacen-4-yl)carbamoyl)-1,5-dimethyl-1H-pyrazole-3-sulfonamide], the pIC50 under setting [2] is more than 6.00.

In the case of `O=C(CCc1cn(CCCNc2ccc([N+](=O)[O-])c3nonc23)nn1)Nc1cccc(S(=O)(=O)NC(=O)Nc2c3c(cc4c2CCC4)CCC3)c1` [N-(3-(N-((1,2,3,5,6,7-hexahydro-s-indacen-4-yl)carbamoyl)sulfamoyl)phenyl)-3-(1-(3-((7-nitrobenzo[c][1,2,5]oxadiazol-4-yl)amino)propyl)-1H-1,2,3-triazol-4-yl)propanamide], under setting [2], the pIC50 was more than 5.00.

For the compound `CC(C)(O)c1coc(S(=O)(=O)NC(=O)Nc2cccc3cccnc23)c1` [4-(2-hydroxypropan-2-yl)-N-(quinolin-8-ylcarbamoyl)furan-2-sulfonamide], the pIC50 under setting [2] is more than 5.00.

For the compound `O=C(Nc1c2c(cc3c1CCC3)CCC2)NS(=O)(=O)c1ccn(C2CC2)n1` [1-cyclopropyl-N-((1,2,3,5,6,7-hexahydro-s-indacen-4-yl)carbamoyl)-1H-pyrazole-3-sulfonamide], the pIC50 under setting [2] is more than 7.00.

Regarding `CC(C)(O)c1coc(S(=O)(=O)NC(=O)Nc2c3c(cc4c2CCC4O)CCC3)c1` (centres unmarked) [N-((1-hydroxy-1,2,3,5,6,7-hexahydro-s-indacen-4-yl)carbamoyl)-4-(2-hydroxypropan-2-yl)furan-2-sulfonamide], the pIC50 under setting [2] is more than 5.00.

Regarding `Cn1nc(S(=O)(=O)NC(=O)Nc2c3c(cc4c2CCC4)CCC3)cc1C(F)(F)F` [N-((1,2,3,5,6,7-hexahydro-s-indacen-4-yl)carbamoyl)-1-methyl-5-(trifluoromethyl)-1H-pyrazole-3-sulfonamide], the negative-log IC50 (pIC50) under setting [2] was more than 6.00.

Take `CC(C)(O)c1coc(S(=O)(=O)NC(=S)Nc2c3c(cc4c2CCC4)CCC3)c1` [N-((1,2,3,5,6,7-hexahydro-s-indacen-4-yl)carbamothioyl)-4-(2-hydroxypropan-2-yl)furan-2-sulfonamide]: the pIC50 under setting [2] was more than 6.00.

`O=C(Nc1c2c(cc3c1CCC3)CCC2)NS(=O)(=O)c1cccc(OC(F)F)c1` [3-(difluoromethoxy)-N-((1,2,3,5,6,7-hexahydro-s-indacen-4-yl)carbamoyl)benzenesulfonamide]: the pIC50 under setting [2] was more than 6.00.

`Cc1cc(C2CC2)nc(NC(=O)NS(=O)(=O)c2cc(C(C)(C)O)co2)n1` [N-((4-cyclopropyl-6-methylpyrimidin-2-yl)carbamoyl)-4-(2-hydroxypropan-2-yl)furan-2-sulfonamide]: under setting [2], the pIC50 was more than 6.00.

On to `COc1ccccc1S(=O)(=O)NC(=O)Nc1c2c(cc3c1CCC3)CCC2` [N-((1,2,3,5,6,7-hexahydro-s-indacen-4-yl)carbamoyl)-2-methoxybenzenesulfonamide], for which the negative logarithm of the IC50 (pIC50) under setting [2] is more than 6.00.

For the compound `O=C(Nc1c2c(cc3c1CCC3)CCC2)NS(=O)(=O)c1ccc2c(c1)OCO2` [N-((1,2,3,5,6,7-hexahydro-s-indacen-4-yl)carbamoyl)benzo[d][1,3]dioxole-5-sulfonamide], the pIC50 under setting [2] is more than 6.00.

As to `O=C(Nc1c2c(cc3c1CCC3)CCC2)NS(=O)(=O)c1ccn(C2CCCCC2)n1` [1-cyclohexyl-N-((1,2,3,5,6,7-hexahydro-s-indacen-4-yl)carbamoyl)-1H-pyrazole-3-sulfonamide], under setting [2], the pIC50 is more than 6.00.

On to `CN(C)c1ccc2c(CC(=O)NCCc3ccc(S(=O)(=O)NC(=O)Nc4c5c(cc6c4CCC6)CCC5)cc3)cc(=O)oc2c1` [2-(7-(Dimethylamino)-2-oxo-2H-chromen-4-yl)-N-(4-(N-(1,2,3,5,6,7-hexahydro-s-indacen-4-ylcarbamoyl)sulfamoyl)phenethyl)acetamide], for which the pIC50 under setting [2] is more than 6.00.

Consider `O=C(Nc1cccc2cccnc12)NS(=O)(=O)c1cccc(C2(C(F)(F)F)N=N2)c1` [N-(quinolin-8-ylcarbamoyl)-3-(3-(trifluoromethyl)-3H-diazirin-3-yl)benzenesulfonamide], for which the pIC50 under setting [2] is more than 5.00.

On to `CCCCNC(=O)NS(=O)(=O)c1ccc(N)cc1` [Carbutamide, reference compound], for which the pIC50 under setting [1] is less than 3.70.

For `[2H]C([2H])([2H])C(O)(c1cc(S(=O)(=O)NC(=O)Nc2c3c(cc4c2CCC4)CCC3)oc1C)C([2H])([2H])[2H]` [N-((1,2,3,5,6,7-hexahydro-s-indacen-4-yl)carbamoyl)-4-(2-hydroxypropan-2-yl-1,1,1,3,3,3-d6)-5-methylfuran-2-sulfonamide], the pIC50 under setting [2] is more than 7.00.

On to `CN(C)c1cccc2c(S(=O)(=O)NC(=O)Nc3c4c(cc5c3CCC5)CCC4)cccc12` [5-(dimethylamino)-N-((1,2,3,5,6,7-hexahydro-s-indacen-4-yl)carbamoyl)naphthalene-1-sulfonamide], for which, under setting [2], the pIC50 was more than 6.00.

Take `CC(C)c1cc(Cl)cc(C(C)C)c1NC(=O)NS(=O)(=O)c1cccc2cnccc12` [N-((4-chloro-2,6-diisopropylphenyl)carbamoyl)isoquinoline-5-sulfonamide]: under setting [2], the pIC50 was more than 6.00.

Take `CC(C)(O)c1cccc(S(=O)(=O)NC(=O)Nc2c3c(cc4c2CCC4)CCC3)c1` [N-((1,2,3,5,6,7-hexahydro-s-indacen-4-yl)carbamoyl)-3-(2-hydroxypropan-2-yl)benzenesulfonamide]: under setting [2], the pIC50 was more than 7.00.

On to `O=C(Nc1c2c(cc3c1CCC3)CCC2)NS(=O)(=O)c1cnc2c(c1)CCC2` [N-((1,2,3,5,6,7-hexahydro-s-indacen-4-yl)carbamoyl)-6,7-dihydro-5H-cyclopenta[b]pyridine-3-sulfonamide], for which the pIC50 under setting [2] was more than 7.00.

In the case of `O=C(Nc1cccc2ncccc12)NS(=O)(=O)c1cccc(C2(C(F)(F)F)N=N2)c1` [N-(quinolin-5-ylcarbamoyl)-3-(3-(trifluoromethyl)-3H-diazirin-3-yl)benzenesulfonamide], the pIC50 under setting [2] is more than 4.30.

Turning to `CC(C)c1cc(Cl)cc(C(C)C)c1NC(=O)NS(=O)(=O)c1ccn(C(C)C)n1` [sodium ((4-chloro-2,6-diisopropylphenyl)carbamoyl)((1-isopropyl-1H-pyrazol-3-yl)sulfonyl)amide], the pIC50 under setting [2] is more than 6.00.

Consider `[2H]C([2H])([2H])C(O)(c1cc(S(=O)(=O)NC(=O)Nc2c3c(c(Br)c4c2OCC4)CCC3)oc1C)C([2H])([2H])[2H]` [N-((4-bromo-3,5,6,7-tetrahydro-2H-indeno[5,6-b]furan-8-yl)carbamoyl)-4-(2-hydroxypropan-2-yl-1,1,1,3,3,3-d6)-5-methylfuran-2-sulfonamide], for which the pIC50 under setting [2] is more than 7.00.

As for `O=C(Nc1c2c(cc3c1CCC3)CCC2)NS(=O)(=O)C1CCCC1` [N-((1,2,3,5,6,7-hexahydro-s-indacen-4-yl)carbamoyl)cyclopentanesulfonamide], the pIC50 under setting [2] is more than 5.00.

As for `CC(C)(O)c1ccnc(S(=O)(=O)NC(=O)Nc2c3c(cc4c2CCC4)CCC3)c1` [N-(1,2,3,5,6,7-hexahydro-s-indacen-4-ylcarbamoyl)-4-(2-hydroxypropan-2-yl)pyridine-2-sulfonamide], under setting [2], the pIC50 is more than 7.00.

`CC(C)c1cc(Cl)cc(C(C)C)c1NC(=O)NS(=O)(=O)c1cccc2cccnc12` [N-((4-chloro-2,6-diisopropylphenyl)carbamoyl)quinoline-8-sulfonamide]: the pIC50 under setting [2] is more than 5.00.

Broadly, the pIC50 is the negative decadic logarithm of the IC50, by convention in mol/L.
